Test system: MV-4-11 cells
Experiment: Gene expression microarray analysis (Affymetrix PrimeView) and GSEA
Assay type: cell-based, human
Parameters: RFU PODN (11730768_x_at) / Fold change /veh PODN (11730768_x_at) / RFU LINC00158 (11744669_a_at) / Fold change /veh LINC00158 (11744669_a_at) / RFU DUSP10 (11751237_a_at) / Fold change /veh DUSP10 (11751237_a_at) / RFU ID3 (11757404_x_at) / Fold change /veh ID3 (11757404_x_at) / RFU PLEKHG5 (11737974_s_at) / Fold change /veh PLEKHG5 (11737974_s_at) / RFU LRRC4B (11730491_at) / Fold change /veh LRRC4B (11730491_at) / RFU GIMAP4 (11747438_a_at) / Fold change /veh GIMAP4 (11747438_a_at) / RFU KRT8 (11758183_x_at) / Fold change /veh KRT8 (11758183_x_at) / RFU CNN1 (11734310_a_at) / Fold change /veh CNN1 (11734310_a_at) / RFU VPS37D (11726825_at) / Fold change /veh VPS37D (11726825_at) / RFU C10orf10 (11716522_x_at) / Fold change /veh C10orf10 (11716522_x_at) / RFU KIR2DL2 /// KIR2DL4 /// KIR2DL5A /// KIR2DL5B /// KIR2DS1 /// KIR2DS2 /// KIR2DS3 /// KIR2DS4 /// KIR3DL3 /// KIR3DL3 /// KIR3DS1 (11738374_at) / Fold change /veh KIR2DL2 /// KIR2DL4 /// KIR2DL5A /// KIR2DL5B /// KIR2DS1 /// KIR2DS2 /// KIR2DS3 /// KIR2DS4 /// KIR3DL3 /// KIR3DL3 /// KIR3DS1 (11738374_at) / RFU C1QL1 (11718748_at) / Fold change /veh C1QL1 (11718748_at) / RFU TMPRSS4 (11747572_a_at) / Fold change /veh TMPRSS4 (11747572_a_at) / RFU HAMP (11756126_x_at) / Fold change /veh HAMP (11756126_x_at) / RFU RNFT2 (11725882_a_at) / Fold change /veh RNFT2 (11725882_a_at) / RFU NR4A2 (11747474_a_at) / Fold change /veh NR4A2 (11747474_a_at) / RFU ABCC12 (11746883_a_at) / Fold change /veh ABCC12 (11746883_a_at) / RFU TMEM136 (11760407_x_at) / Fold change /veh TMEM136 (11760407_x_at) / RFU CLDN22 /// WWC2 (11732394_at) / Fold change /veh CLDN22 /// WWC2 (11732394_at) / RFU HLA-DPB1 (11760878_x_at) / Fold change /veh HLA-DPB1 (11760878_x_at) / RFU SPINT1 (11716480_a_at) / Fold change /veh SPINT1 (11716480_a_at) / RFU GAP43 (11754022_s_at) / Fold change /veh GAP43 (11754022_s_at) / RFU A4GNT (11735810_at) / Fold change /veh A4GNT (11735810_at) / RFU PRB3 (11715151_x_at) / Fold change /veh PRB3 (11715151_x_at) / RFU TUBB4B (11761932_at) / Fold change /veh TUBB4B (11761932_at) / RFU CAPN14 (11732068_a_at) / Fold change /veh CAPN14 (11732068_a_at) / RFU TMCC2 (11721928_a_at) / Fold change /veh TMCC2 (11721928_a_at) / RFU IRGQ (11745062_a_at) / Fold change /veh IRGQ (11745062_a_at) / RFU FAM174B (11720279_a_at) / Fold change /veh FAM174B (11720279_a_at) / RFU TMPRSS4 (11748680_a_at) / Fold change /veh TMPRSS4 (11748680_a_at) / RFU FAM212B (11763350_a_at) / Fold change /veh FAM212B (11763350_a_at) / RFU PLEKHG5 (11743358_a_at) / Fold change /veh PLEKHG5 (11743358_a_at) / RFU ZSCAN30 (11745921_a_at) / Fold change /veh ZSCAN30 (11745921_a_at) / RFU CMKLR1 (11741424_a_at) / Fold change /veh CMKLR1 (11741424_a_at) / RFU LOC101060620 /// MAPK8IP1 (11723275_at) / Fold change /veh LOC101060620 /// MAPK8IP1 (11723275_at) / RFU SPTSSB (11747773_x_at) / Fold change /veh SPTSSB (11747773_x_at) / RFU PRSS12 (11739890_at) / Fold change /veh PRSS12 (11739890_at) / RFU BIN1 (11741810_x_at) / Fold change /veh BIN1 (11741810_x_at) / RFU WNT11 (11732464_a_at) / Fold change /veh WNT11 (11732464_a_at) / RFU C10orf10 (11716521_a_at) / Fold change /veh C10orf10 (11716521_a_at) / RFU C5orf56 (11738089_at) / Fold change /veh C5orf56 (11738089_at) / RFU CYB561 (11721691_x_at) / Fold change /veh CYB561 (11721691_x_at) / RFU ANKRD19P (11752326_a_at) / Fold change /veh ANKRD19P (11752326_a_at) / RFU OR2T12 /// OR2T33 /// OR2T8 (11738714_s_at) / Fold change /veh OR2T12 /// OR2T33 /// OR2T8 (11738714_s_at) / RFU VCAN (11748164_a_at) / Fold change /veh VCAN (11748164_a_at) / RFU JSRP1 (11732532_at) / Fold change /veh JSRP1 (11732532_at) / RFU KRTAP10-11 (11738290_x_at) / Fold change /veh KRTAP10-11 (11738290_x_at) / RFU MYO3A (11730013_a_at) / Fold change /veh MYO3A (11730013_a_at) / RFU EBF3 (11725865_a_at) / Fold change /veh EBF3 (11725865_a_at) / RFU CAMK2N1 (11719241_x_at) / Fold change /veh CAMK2N1 (11719241_x_at) / RFU C5orf56 (11738088_a_at) / Fold change /veh C5orf56 (11738088_a_at) / RFU OLFML3 (11715873_a_at) / Fold change /veh OLFML3 (11715873_a_at) / RFU LOC100653217 /// NTM (11731650_a_at) / Fold change /veh LOC100653217 /// NTM (11731650_a_at) / RFU MAPK11 (11762145_a_at) / Fold change /veh MAPK11 (11762145_a_at) / RFU FIZ1 (11724087_x_at) / Fold change /veh FIZ1 (11724087_x_at) / RFU OASL (11726364_x_at) / Fold change /veh OASL (11726364_x_at) / RFU SOX15 (11748057_x_at) / Fold change /veh SOX15 (11748057_x_at) / RFU CD79A (11719716_a_at) / Fold change /veh CD79A (11719716_a_at) / RFU HIST1H1D (11736915_at) / Fold change /veh HIST1H1D (11736915_at) / RFU CASKIN2 (11723855_a_at) / Fold change /veh CASKIN2 (11723855_a_at) / RFU LOC730098 (11760151_x_at) / Fold change /veh LOC730098 (11760151_x_at) / RFU OR4N2 (11742367_at) / Fold change /veh OR4N2 (11742367_at) / RFU PRRT2 (11749266_a_at) / Fold change /veh PRRT2 (11749266_a_at) / RFU SNX32 (11753110_a_at) / Fold change /veh SNX32 (11753110_a_at) / RFU CDHR5 (11726645_a_at) / Fold change /veh CDHR5 (11726645_a_at) / RFU RCAN1 (11760418_a_at) / Fold change /veh RCAN1 (11760418_a_at) / RFU FAM167A (11723789_a_at) / Fold change /veh FAM167A (11723789_a_at) / RFU FAM26E (11764081_at) / Fold change /veh FAM26E (11764081_at) / RFU ISYNA1 (11749810_s_at) / Fold change /veh ISYNA1 (11749810_s_at) / RFU ACY1 (11761880_at) / Fold change /veh ACY1 (11761880_at) / RFU 11764098_at / Fold change /veh 11764098_at / RFU SAMD14 (11745864_x_at) / Fold change /veh SAMD14 (11745864_x_at) / RFU NPB (11741838_a_at) / Fold change /veh NPB (11741838_a_at) / RFU TMPRSS6 (11731388_a_at) / Fold change /veh TMPRSS6 (11731388_a_at) / RFU KRTAP10-2 (11738614_at) / Fold change /veh KRTAP10-2 (11738614_at) / RFU ARHGAP8 /// PRR5-ARHGAP8 (11727945_x_at) / Fold change /veh ARHGAP8 /// PRR5-ARHGAP8 (11727945_x_at) / RFU KRTAP5-7 /// NADSYN1 (11734609_at) / Fold change /veh KRTAP5-7 /// NADSYN1 (11734609_at) / RFU RASL12 (11751679_a_at) / Fold change /veh RASL12 (11751679_a_at) / RFU CDKN2B (11736163_a_at) / Fold change /veh CDKN2B (11736163_a_at) / RFU PRF1 (11729649_at) / Fold change /veh PRF1 (11729649_at) / RFU, ZNF638 /// ZNF638-IT1 / Fold change vs veh, ZNF638 /// ZNF638-IT1 / RFU, PANK3 / Fold change vs veh, PANK3 / RFU, SH3YL1 / Fold change vs veh, SH3YL1 / RFU, ZEB2 / Fold change vs veh, ZEB2 / RFU, NRIP1 / Fold change vs veh, NRIP1 / RFU, PTTG1IP / Fold change vs veh, PTTG1IP / RFU, CAPN2 / Fold change vs veh, CAPN2 / RFU, MED14 / Fold change vs veh, MED14 / RFU, SNORA58 / Fold change vs veh, SNORA58 / RFU, C1orf63 / Fold change vs veh, C1orf63 / RFU, LRRFIP1 / Fold change vs veh, LRRFIP1 / RFU, NDUFAF7 / Fold change vs veh, NDUFAF7 / RFU, SLC12A2 / Fold change vs veh, SLC12A2 / RFU, IBTK / Fold change vs veh, IBTK / RFU, ESF1 / Fold change vs veh, ESF1 / Fold change vs veh, TMEM50B / RFU, TAOK1 / Fold change vs veh, TAOK1 / RFU, ACBD3 / Fold change vs veh, ACBD3 / RFU, TMA16 / Fold change vs veh, TMA16 / RFU, RWDD3 / Fold change vs veh, RWDD3 / RFU, BCAT1 / Fold change vs veh, BCAT1 / RFU, EDEM3 / Fold change vs veh, EDEM3 / RFU, TMEM33 / Fold change vs veh, TMEM33 / RFU, WDR75 / Fold change vs veh, WDR75 / RFU, AHCTF1 / Fold change vs veh, AHCTF1 / RFU, TFRC / Fold change vs veh, TFRC / RFU, ZDHHC17 / Fold change vs veh, ZDHHC17 / RFU, NOM1 / Fold change vs veh, NOM1 / RFU, ARL8B / Fold change vs veh, ARL8B / RFU, ZBTB11 / Fold change vs veh, ZBTB11 / RFU, TAMM41 / Fold change vs veh, TAMM41 / RFU, KIAA1704 /// LOC100996395 / Fold change vs veh, KIAA1704 /// LOC100996395 / RFU, ING1 / Fold change vs veh, ING1 / RFU, TRMT61B / Fold change vs veh, TRMT61B / RFU, FUBP3 / Fold change vs veh, FUBP3 / RFU, TP53 / Fold change vs veh, TP53 / RFU, TNKS2 / Fold change vs veh, TNKS2 / RFU, ZFP14 / Fold change vs veh, ZFP14 / RFU, ACTR2 / Fold change vs veh, ACTR2 / RFU, PPP3R1 / Fold change vs veh, PPP3R1 / RFU, PIK3R1 / Fold change vs veh, PIK3R1 / RFU, HNRNPA1 / Fold change vs veh, HNRNPA1 / RFU, RNF170 / Fold change vs veh, RNF170 / RFU, ZNF28 / Fold change vs veh, ZNF28 / RFU, RNGTT / Fold change vs veh, RNGTT / RFU, OGT / Fold change vs veh, OGT / RFU, BRD1 / Fold change vs veh, BRD1 / RFU, MARS / Fold change vs veh, MARS / RFU, ZNF655 / Fold change vs veh, ZNF655 / RFU, FAHD1 / Fold change vs veh, FAHD1 / RFU, BDP1 / Fold change vs veh, BDP1 / RFU, LRRCC1 / Fold change vs veh, LRRCC1 / RFU, ARID1A / Fold change vs veh, ARID1A / RFU, ZNF146 / Fold change vs veh, ZNF146 / RFU, ZNF330 / Fold change vs veh, ZNF330 / RFU, GPN3 / Fold change vs veh, GPN3 / RFU, C9orf123 / Fold change vs veh, C9orf123 / RFU, N4BP2L2 / Fold change vs veh, N4BP2L2 / RFU, ARFIP1 / Fold change vs veh, ARFIP1 / RFU, FAM179B / Fold change vs veh, FAM179B / RFU, BCL10 / Fold change vs veh, BCL10 / RFU, UHRF1BP1L / Fold change vs veh, UHRF1BP1L / RFU, BET1 / Fold change vs veh, BET1 / RFU, CNOT2 / Fold change vs veh, CNOT2 / RFU, ZNF268 / Fold change vs veh, ZNF268 / Fold change vs veh, ZNF507 / RFU, DGCR2 / Fold change vs veh, DGCR2 / RFU, WDSUB1 / Fold change vs veh, WDSUB1 / Fold change vs veh, HSP90B1 /// MIR3652 / RFU, ADSS / Fold change vs veh, ADSS / RFU, GK / Fold change vs veh, GK / RFU, ZNF148 / Fold change vs veh, ZNF148 / RFU, TAF9 / Fold change vs veh, TAF9 / RFU, SLC1A5 / Fold change vs veh, SLC1A5 / RFU, SLMO2 / Fold change vs veh, SLMO2 / RFU, ABCC4 / Fold change vs veh, ABCC4 / RFU, LOC101060439 /// RAP1B / Fold change vs veh, LOC101060439 /// RAP1B / RFU, RFX7 / Fold change vs veh, RFX7 / RFU, GTPBP10 / Fold change vs veh, GTPBP10 / RFU, CNEP1R1 / Fold change vs veh, CNEP1R1 / RFU, BIVM-ERCC5 /// ERCC5 / Fold change vs veh, BIVM-ERCC5 /// ERCC5 / RFU, ILF3 / Fold change vs veh, ILF3 / RFU 11762660_at / Fold change /veh 11762660_at / RFU VCAN (11757783_s_at) / Fold change /veh VCAN (11757783_s_at) / RFU DDX43 (11728927_at) / Fold change /veh DDX43 (11728927_at) / RFU KRT8 (11758188_x_at) / Fold change /veh KRT8 (11758188_x_at) / RFU NKD1 (11759106_at) / Fold change /veh NKD1 (11759106_at) / RFU SRD5A1 (11742802_a_at) / Fold change /veh SRD5A1 (11742802_a_at) / RFU TPSAB1 /// TPSB2 (11721975_s_at) / Fold change /veh TPSAB1 /// TPSB2 (11721975_s_at) / RFU GSTM3 (11746129_a_at) / Fold change /veh GSTM3 (11746129_a_at) / RFU IL23R (11737362_x_at) / Fold change /veh IL23R (11737362_x_at) / RFU TMEM51 (11727254_a_at) / Fold change /veh TMEM51 (11727254_a_at) / RFU PIWIL2 (11732686_x_at) / Fold change /veh PIWIL2 (11732686_x_at) / RFU ORM1 (11744905_x_at) / Fold change /veh ORM1 (11744905_x_at) / RFU CCDC152 (11743942_at) / Fold change /veh CCDC152 (11743942_at) / RFU ECM1 (11717891_a_at) / Fold change /veh ECM1 (11717891_a_at) / RFU IL23R (11748794_a_at) / Fold change /veh IL23R (11748794_a_at) / RFU TNFAIP8L3 (11732012_x_at) / Fold change /veh TNFAIP8L3 (11732012_x_at) / RFU MBOAT4 (11741988_at) / Fold change /veh MBOAT4 (11741988_at) / RFU 11764193_at / Fold change /veh 11764193_at / RFU TMEM53 (11763286_at) / Fold change /veh TMEM53 (11763286_at) / RFU MAGEB2 (11727129_at) / Fold change /veh MAGEB2 (11727129_at) / RFU TMEM200A (11744735_a_at) / Fold change /veh TMEM200A (11744735_a_at) / RFU CCDC152 (11751479_a_at) / Fold change /veh CCDC152 (11751479_a_at) / RFU FAM211A (11726209_a_at) / Fold change /veh FAM211A (11726209_a_at) / RFU RGS16 (11746705_a_at) / Fold change /veh RGS16 (11746705_a_at) / RFU VCAN (11755009_s_at) / Fold change /veh VCAN (11755009_s_at) / RFU RHOB (11743442_s_at) / Fold change /veh RHOB (11743442_s_at) / RFU RGS16 (11720943_a_at) / Fold change /veh RGS16 (11720943_a_at) / RFU RGS16 (11720944_at) / Fold change /veh RGS16 (11720944_at) / RFU, VPS4B / Fold change vs veh, VPS4B / RFU, CREB1 / Fold change vs veh, CREB1 / RFU, DNAJC13 / Fold change vs veh, DNAJC13 / RFU, GNAQ / Fold change vs veh, GNAQ / RFU, CDK5R1 / Fold change vs veh, CDK5R1 / RFU, ZRANB3 / Fold change vs veh, ZRANB3 / RFU, CUL4A / Fold change vs veh, CUL4A / RFU, CCNY / Fold change vs veh, CCNY / RFU, UFL1 / Fold change vs veh, UFL1 / RFU, COG3 / Fold change vs veh, COG3 / RFU, DIAPH2 / Fold change vs veh, DIAPH2 / RFU, SKA2 / Fold change vs veh, SKA2 / RFU, AFF3 / Fold change vs veh, AFF3 / RFU, LMF1 / Fold change vs veh, LMF1 / RFU, IPO11 / Fold change vs veh, IPO11 / RFU, DFFB / Fold change vs veh, DFFB / RFU, FOXP1 / Fold change vs veh, FOXP1 / RFU, CARD8 / Fold change vs veh, CARD8 / RFU, STRN3 / Fold change vs veh, STRN3 / RFU, ADK / Fold change vs veh, ADK / RFU, RASSF2 / Fold change vs veh, RASSF2 / RFU, WIPF1 / Fold change vs veh, WIPF1 / RFU, LARP1B / Fold change vs veh, LARP1B / RFU, RASA1 / Fold change vs veh, RASA1 / RFU, RB1 / Fold change vs veh, RB1 / RFU, PPFIA1 / Fold change vs veh, PPFIA1 / RFU, MAT2A / Fold change vs veh, MAT2A / RFU, CCT5 / Fold change vs veh, CCT5 / RFU, WDR92 / Fold change vs veh, WDR92 / RFU, CUX1 / Fold change vs veh, CUX1 / RFU, TTC7A / Fold change vs veh, TTC7A / RFU, TMEM135 / Fold change vs veh, TMEM135 / RFU, DEPTOR / Fold change vs veh, DEPTOR / RFU, CPM / Fold change vs veh, CPM / RFU, DNAJB6 / Fold change vs veh, DNAJB6 / RFU, CACNA2D3 / Fold change vs veh, CACNA2D3 / RFU, DTX4 / Fold change vs veh, DTX4 / RFU, TFCP2 / Fold change vs veh, TFCP2 / RFU, GMCL1 /// GMCL1P1 / Fold change vs veh, GMCL1 /// GMCL1P1 / RFU, AEBP2 / Fold change vs veh, AEBP2 / RFU, SNHG1 /// SNORD22 /// SNORD25 /// SNORD26 /// SNORD27 /// SNORD28 /// SNORD29 /// SNORD31 / Fold change vs veh, SNHG1 /// SNORD22 /// SNORD25 /// SNORD26 /// SNORD27 /// SNORD28 /// SNORD29 /// SNORD31 / Fold change (Aza/veh), C12orf56 (ProbeSet 11735607_a_at) / Fold change (ACY-1035/veh), C12orf56 (ProbeSet 11735607_a_at) / Fold change (Aza/veh), FGFR1OP (ProbeSet 11751329_s_at) / Fold change (ACY-1035/veh), FGFR1OP (ProbeSet 11751329_s_at) / Fold change (Aza/veh), VPS36 (ProbeSet 11739960_a_at) / Fold change (ACY-1035/veh), VPS36 (ProbeSet 11739960_a_at) / RFU SYPL1 (11715823_x_at) / Fold change /veh SYPL1 (11715823_x_at) / RFU IGFBP7 (11715501_s_at) / Fold change /veh IGFBP7 (11715501_s_at) / RFU REEP3 (11722064_at) / Fold change /veh REEP3 (11722064_at) / RFU IGLL1 (11728026_x_at) / Fold change /veh IGLL1 (11728026_x_at): dose or concentration left out as unconfirmed
Details: ProbeSet 11731093_s_at; LIST B

## Nc1ncn([C@@H]2O[C@H](CO)[C@@H](O)[C@H]2O)c(=O)n1 [azacitidine]
  Fold change vs veh, BRD1: 0.85
